Measurements taken from US9981963B2, “3-(1H-pyrazol-4-yl)-1H-pyrrolo[2,3-c]pyridine derivatives as NIK inhibitors” (Janssen Pharmaceutica NV, priority 2013, dated 2018).

Assays:
LP-1 cells = assay: Biological Assay C: antiproliferative activity on LP-1 cells (CellTiter-Glo); assay type: cell-based; conditions: Homo sapiens, 72 hr of treatment, averaged values
Experimental: (§1) Determination of Antiproliferative Activity on LP-1, L-363 and JJN-3 Cells
(§2) All compounds tested were dissolved in DMSO and further dilutions were made in culture medium. Final DMSO concentration was 0.3% (v/v) in cell proliferation assays. Viability was assessed using CellTiter-Glo cell viability assay kit (Promega). The human LP-1, L-363 and JJN-3 cells (DSMZ) were cultured in RPMI 1640 medium supplemented with 2 mM L-glutamine, and 10% fetal calf serum (PAA). Cells were routinely kept as suspension cells at 37° C. in a humidified 5% CO2 atmosphere. Cells were passaged at a seeding density of 0.2×10^6/ml twice a week. Cells were seeded in black tissue culture treated 96-well plates (Perkin Elmer). Densities used for plating ranged from 2,000 to 6,000 cells per well in a total volume of 75 μl medium. After twenty four hours, drugs and/or solvents were added (25 μl) to a final volume of 100 μl. Following 72 hr of treatment plates were removed from the incubator and allowed to equilibrate to room temperature for approx 10 min. 100 μl CellTiter-Glo reagent was added to each well that was then covered (Perkin Elmer Topseal) and shaken on plate shaker for 10 min. Luminescence was measured on a HTS Topcount (Perkin Elmer). Within an experiment, the results for each treatment were the mean of 2 replicate wells. For initial screening purposes, compounds were tested using a 9 point dilution curve (serial 1:3 dilutions). For each experiment, controls (containing no drug) and a blank incubation (containing cells read at the time of compound addition) were run in parallel. The blank value was subtracted from all control and sample values. For each sample, the mean value for cell growth (in relative light units) was expressed as a percentage of the mean value for cell growth of the control.

L-363 cells = assay: Biological Assay C: antiproliferative activity on L-363 cells (CellTiter-Glo); assay type: cell-based; conditions: Homo sapiens, 72 hr of treatment, averaged values
Experimental: as §1, §2

JJN-3 cells = assay: Biological Assay C: antiproliferative activity on JJN-3 cells (CellTiter-Glo); assay type: cell-based; conditions: Homo sapiens, 72 hr of treatment, averaged values
Experimental: as §1, §2

[1] = molecular target: T1, Recombinant Human NF-kappaB-inducing Kinase (NIK/MAP3K14) (Homo sapiens (Human), UniProt Q99558); assay: Biological Assay A2: inhibition of auto-phosphorylation of recombinant human NIK/MAP3K14 (AlphaScreen); assay type: biochemical; conditions: 25 microM ATP, 0.2 nM GST-tagged NIK/MAP3K14, 1 h at 25° C., averaged values, read-out: Alpha-Screen IC50
Experimental: Inhibition of Auto-phosphorylation of Recombinant Human NF-kappaB-inducing Kinase (NIK/MAP3K14) Activity (AlphaScreen®)
NIK/MAP3K14 auto-phosphorylation activity was measured using the AlphaScreen® (αscreen) format (Perkin Elmer). All compounds tested were dissolved in dimethyl sulfoxide (DMSO) and further dilutions were made in assay buffer. Final DMSO concentration was 1% (v/v) in assays. Assay buffer was 50 mM Tris pH 7.5 containing 1 mM EGTA (ethylene glycol tetraacetic acid), 1 mM DTT (dithiothreitol), 0.1 mM Na3VO4, 5 mM MgCl2, 0.01% Tween® 20. Assays were carried out in 384 well Alphaplates (Perkin Elmer). Incubations consisted of compound, 25 microM Adenosine-5′-triphosphate (ATP), and 0.2 nM NIK/MAP3K14. Incubations were initiated by addition of GST-tagged NIK/MAP3K14 enzyme, carried out for 1 h at 25° C. and terminated by addition of stop buffer containing anti-phospho-IKK Ser176/180 antibody. Protein A Acceptor and Glutathione-Donor beads were added before reading using an EnVision® Multilabel Plate Reader (Perkin Elmer). Signal obtained in the wells containing blank samples was subtracted from all other wells and IC50's were determined by fitting a sigmoidal curve to % inhibition of control versus Log10 compound concentration.

[2] = tested on: P-IKKα levels in L363 cells; assay: Biological Assay B: effect of compounds on P-IKKα levels in L363 cells; assay type: cell-based; conditions: Homo sapiens, L-363; L363 cells with BAFF, 2 hr treatment; averaged values; read-out: IKKα Cellular IC50
Experimental: Effect of Compounds on P-IKKα Levels in L363 Cells
All compounds tested were dissolved in DMSO and further dilutions were made in culture medium. Final DMSO concentration was 1% (v/v) in cell assays. The human L363 cells (ATCC) were cultured in RPMI 1640 medium supplemented with GlutaMax and 10% fetal calf serum (PAA). Cells were routinely maintained at densities of 0.2×10^6 cells per ml-1×10^6 cells per ml at 37° C. in a humidified 5% CO2 atmosphere. Cells were passaged twice a week splitting back to obtain the low density. Cells were seeded in 96 well plates (Nunc 167008) at 2×10^6 per ml media in a volume of 75 μl per well plus 25 μl 1 μg/ml recombinant human B-cell activating factor (BAFF/BLyS/TNFSF13B). Seeded cells were incubated at 37° C. in a humidified 5% CO2 atmosphere for 24 hr. Drugs and/or solvents were added (20 μl) to a final volume of 120 μl. Following 2 hr treatment plates were removed from the incubator and cell lysis was achieved by the addition of 30 μl 5× lysis buffer followed by shaking on a plate shaker at 4° C. for 10 min. At the end of this incubation lysed cells were centrifuged at 800×g for 20 min at 4° C. and the lysate was assessed for P-IKKα levels by sandwich immuno-assay carried out in anti-rabbit antibody coated Mesoscale plates. Within an experiment, the results for each treatment were the mean of 2 replicate wells. For initial screening purposes, compounds were tested using an 8 point dilution curve (serial 1:3 dilutions). For each experiment, controls (containing MG132 and BAFF but no test drug) and a blank incubation (containing MG132 and BAFF and 10 μM ADS125117, a test concentration known to give full inhibition) were run in parallel. The blank incubation value was subtracted from all control and sample values. To determine the IC50 a sigmoidal curve was fitted to the plot of % inhibition of control P-IKKα levels versus Log10 compound concentration.

[3] = molecular target: T1, Recombinant Human NF-kappaB-inducing Kinase (NIK/MAP3K14); assay: Biological Assay A: inhibition of recombinant human NIK/MAP3K14 activity (MSD, MBP substrate); conditions: 25 μM ATP, 10 nM NIK/MAP3K14, 1 h at 25° C.; averaged over all measurements on all batches; read-out: Biochemical (MSD MBP) IC50
Experimental: Inhibition of Recombinant Human NF-kappaB-inducing Kinase (NIK/MAP3K14) Activity
Assay buffer was 50 mM Tris pH 7.5 containing 1 mM EGTA (ethylene glycol tetraacetic acid), 1 mM DTT (dithiothreitol), 0.1 mM Na3VO4, 5 mM MgCl2, 0.01% Tween® 20. Assays were carried out in 384 well Mesoscale high binding plates which had been coated with myelin basic protein (MBP) and blocked with bovine serum albumin to prevent non-specific protein binding. All compounds tested were dissolved in dimethyl sulfoxide (DMSO) and further dilutions were made in assay buffer. Final DMSO concentration was 1% (v/v) in assays. Incubations consisted of compound (1% DMSO in control and blank wells), 25 μM Adenosine-5′-triphosphate (ATP), and 10 nM NIK/MAP3K14 substituting enzyme with buffer in the blank wells. Incubations were carried out for 1 h at 25° C. and were followed by washing and sequential incubation with rabbit anti-phospho-MBP and anti-rabbit Ig Sulfotag antibody before reading bound Sulfotag on a Mesoscale Discovery. Signal obtained in the wells containing blank samples was subtracted from all other wells and IC50's were determined by fitting a sigmoidal curve to % inhibition of control versus Log10 compound concentration.

T1 sequence (Q99558 whole entry): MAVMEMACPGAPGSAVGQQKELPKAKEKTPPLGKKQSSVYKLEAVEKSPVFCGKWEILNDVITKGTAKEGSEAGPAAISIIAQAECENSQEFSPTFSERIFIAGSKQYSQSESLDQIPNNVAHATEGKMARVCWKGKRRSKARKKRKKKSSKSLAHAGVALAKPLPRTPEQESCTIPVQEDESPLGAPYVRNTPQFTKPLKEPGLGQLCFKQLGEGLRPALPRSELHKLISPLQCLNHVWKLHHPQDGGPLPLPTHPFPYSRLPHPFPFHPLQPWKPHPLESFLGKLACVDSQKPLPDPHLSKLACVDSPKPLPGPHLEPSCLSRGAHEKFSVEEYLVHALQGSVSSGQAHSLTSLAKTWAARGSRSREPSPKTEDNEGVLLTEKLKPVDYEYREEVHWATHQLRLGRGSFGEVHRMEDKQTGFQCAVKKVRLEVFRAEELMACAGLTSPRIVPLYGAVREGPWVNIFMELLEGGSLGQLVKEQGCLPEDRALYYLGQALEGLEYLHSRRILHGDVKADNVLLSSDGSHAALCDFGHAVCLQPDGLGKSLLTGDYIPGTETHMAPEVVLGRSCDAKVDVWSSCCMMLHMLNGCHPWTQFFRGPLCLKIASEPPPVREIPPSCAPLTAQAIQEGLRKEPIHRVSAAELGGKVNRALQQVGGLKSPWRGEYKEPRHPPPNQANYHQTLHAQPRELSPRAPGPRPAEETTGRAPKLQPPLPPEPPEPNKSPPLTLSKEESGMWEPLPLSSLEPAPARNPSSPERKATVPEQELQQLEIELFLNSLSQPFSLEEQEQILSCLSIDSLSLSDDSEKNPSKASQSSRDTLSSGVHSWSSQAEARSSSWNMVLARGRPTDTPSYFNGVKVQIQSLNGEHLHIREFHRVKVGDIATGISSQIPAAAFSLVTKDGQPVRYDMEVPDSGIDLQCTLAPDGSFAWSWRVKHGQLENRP

Row | IC50 [1] | IC50 [2] | IC50 [3] | Structure (SMILES) | EC50 (LP-1 cells) | EC50 (L-363 cells) | EC50 (JJN-3 cells)
1 | 47 nM | – | – | CCn1c(C#N)c(-c2cn[nH]c2)c2cc(C#CC(C)(C)O)ncc21 [Compound 39] | 8 µM | 3920 nM | 4610 nM
2 | 28 nM | 173 nM | 58 nM | CCn1cc(-c2c[nH]nc2N)c2cc(C#CC(C)(C)O)ncc21 [Compound 3] | 7.24 µM | 4040 nM | 2370 nM
3 | 23 nM | 113 nM | 9 nM | CCn1cc(-c2cn[nH]c2)c2cc(C#CC3(O)CCCC3)ncc21 [Compound 10] | 5.07 µM | 3180 nM | 1210 nM
4 | 65 nM | 191 nM | 48 nM | CCC(CC)n1cc(-c2cn[nH]c2)c2cc(C#CC(C)(C)O)ncc21 [Compound 24] | 0.647 µM | 519 nM | 744 nM
5 | 69 nM | 418 nM | 88 nM | CC(C)(O)C#Cc1cc2c(-c3cn[nH]c3)cn(CC3COC3)c2cn1 [Compound 17] | > 30 µM | 11900 nM | 5860 nM
6 | 41 nM | 167 nM | 45 nM | COCCCn1cc(-c2cn[nH]c2)c2cc(C#CC(C)(C)O)ncc21 [Compound 18] | 6.82 µM | 2540 nM | 1870 nM
7 | 30 nM | 187 nM | 29 nM | CC(C)(O)C#Cc1cc2c(-c3cn[nH]c3)cn(CCC(C)(C)O)c2cn1 [Compound 20] | > 30 µM | 2260 nM | 2650 nM
8 | 84 nM | – | – | [2H]c1n[nH]c([2H])c1-c1cn(C2CCN(C)CC2)c2c(C)nc(C#CC(O)(C([2H])([2H])[2H])C([2H])([2H])[2H])cc12 [Compound 44] | 1.54 µM | 269 nM | 391 nM
9 | 141 nM | – | – | CC(C)CS(=O)(=O)n1cc(-c2cn[nH]c2)c2cc(C#CC(C)(C)O)ncc21 [Compound 26] | 5.02 µM | 3330 nM | 3870 nM
10 | 38 nM | – | – | [2H]c1n[nH]c([2H])c1-c1cn(CC)c2cnc(C#CC(C)(C)O)cc12 [Compound 40] | 1.95 µM | 260 nM | 547 nM
11 | 79 nM | – | – | CN1CCC(n2cc(-c3c[nH]nc3Cl)c3cc(C#CC(C)(C)O)ncc32)CC1 [Compound 41] | 6.11 µM | 478 nM | 1310 nM
12 | 13 nM | – | – | CCn1cc(-c2c[nH]nc2Cl)c2cc(C#CC(C)(C)O)ncc21 [Compound 38] | 3.2 µM | 1320 nM | 1660 nM
13 | 274 nM | – | – | CCn1cc(-c2c[nH]nc2NC)c2cc(C#CC(C)(C)O)ncc21 [Compound 37] | > 30 µM | 4910 nM | 5660 nM
14 | 14 nM | – | – | CCn1cc(-c2cn[nH]c2)c2cc(C#CC(C)(O)C3CC3)ncc21 (single isomer, unassigned) [Compound 49] | 1.7 µM | 861 nM | 1300 nM
15 | 43 nM | 338 nM | – | CC(C)(O)C#Cc1cc2c(-c3cn[nH]c3)cn(CC(F)(F)F)c2cn1 [Compound 28] | 7.38 µM | 1020 nM | 1530 nM
16 | 111 nM | – | – | [2H]C([2H])([2H])C(O)(C#Cc1cc2c(-c3c[nH]nc3Cl)cn(C3CCN(C)CC3)c2c(C)n1)C([2H])([2H])[2H] [Compound 45] | 1.45 µM | 277 nM | 415 nM
17 | 44 nM | – | – | [2H]c1n[nH]c([2H])c1-c1cn(C2CCN(C3CC3)CC2)c2cnc(C#CC(O)(C([2H])([2H])[2H])C([2H])([2H])[2H])cc12 [Compound 43] | 0.976 µM | 127 nM | 354 nM
18 | – | 89 nM | 9 nM | CCn1cc(-c2cn[nH]c2)c2cc(C#CC(C)(C)O)ncc21 [Compound 9] | 3.06 µM | 553 nM | 526 nM
19 | 13 nM | – | – | CCn1cc(-c2cn[nH]c2)c2cc(C#CC(C)O)ncc21 (stereo not shown) [Compound 46] | 0.709 µM | 343 nM | 530 nM
20 | 63 nM | – | – | CC(C)(O)C#Cc1cc2c(-c3cn[nH]c3)cn(C3CCN(CCF)CC3)c2cn1 [Compound 36] | 9.59 µM | 565 nM | 1620 nM
21 | 4 nM | 632 nM | – | CC(C)(O)C#Cc1cc2c(-c3cn[nH]c3)cn(C3CCC(CO)CC3)c2cn1 (stereo not shown) [Compound 29] | 27.2 µM | 2430 nM | 4170 nM
22 | 63 nM | – | – | [2H]c1n[nH]c([2H])c1-c1cn([C@H]2CCN(CCC(F)(F)F)C2)c2cnc(C#CC(O)(C([2H])([2H])[2H])C([2H])([2H])[2H])cc12 [Compound 42] | 2.67 µM | 1030 nM | 2220 nM
23 | 23 nM | – | – | CC(C)(O)C#Cc1cc2c(-c3cn[nH]c3)cn(C3CCN(CC(F)(F)F)CC3)c2cn1 [Compound 35] | 2.67 µM | 439 nM | 820 nM
24 | 290 nM | – | – | CC(C)(O)C#Cc1cc2c(-c3cn[nH]c3)cn(S(=O)(=O)Cc3ccccc3)c2cn1 [Compound 27] | – | – | –
25 | 14 nM | – | – | CCn1cc(-c2cn[nH]c2)c2cc(C#CC(C)(O)c3cc(C)on3)ncc21 (stereo not shown) [Compound 48] | 6.09 µM | 350 nM | 621 nM
